Measurements published in ChEMBL document CHEMBL1201862, “PubChem BioAssay data set” (2004).
The source made the active and inactive calls.

What was measured:
[1] = target: ATP-dependent molecular chaperone HSP82 (Candida albicans (strain WO-1) (Yeast), UniProt C4YTQ8); assay: steroid-induced GRE reporter decrease in yeast – S. cerevisiae, luminescence, Hsp90 inhibitor project, dose response (AID 2400); type: functional, cell-based;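 also: beta-galactosidase luminescence from glucocorticoid response element reporter as proxy for Hsp90 function; inhibitor potency where signal loss means Hsp90 inhibition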
[2] = NIH-3T3 fibroblast cytotoxicity, dose response, cytotoxicity control, cell-based, fluorescence, Alamar Blue, secondary assay (AID 2327); type: functional;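 also: NIH-3T3 mouse fibroblasts cultured with fluconazole at 8 µg/mL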
[3] = target: T1, Serine/threonine-protein phosphatase (Candida dubliniensis (strain CD36 / CBS 7987 / NCPF 3949 / NRRLY-17841) (Yeast), UniProt B9W6M3); assay: blockers of CaCl2-induced CDRE-lacZ signaling – S. cerevisiae, luminescence, secondary, dose response (AID 2388); type: functional, cell-based;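 also: yeast reporter cells carrying a calcineurin-responsive lacZ construct stimulated with calcium chloride; luminescent beta-galactosidase reporter signal in whole cells rather than isolated phosphatase activity; potency for inhibition where a drop in reporter signal means calcineurin blockade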
T1 sequence (B9W6M3 whole entry): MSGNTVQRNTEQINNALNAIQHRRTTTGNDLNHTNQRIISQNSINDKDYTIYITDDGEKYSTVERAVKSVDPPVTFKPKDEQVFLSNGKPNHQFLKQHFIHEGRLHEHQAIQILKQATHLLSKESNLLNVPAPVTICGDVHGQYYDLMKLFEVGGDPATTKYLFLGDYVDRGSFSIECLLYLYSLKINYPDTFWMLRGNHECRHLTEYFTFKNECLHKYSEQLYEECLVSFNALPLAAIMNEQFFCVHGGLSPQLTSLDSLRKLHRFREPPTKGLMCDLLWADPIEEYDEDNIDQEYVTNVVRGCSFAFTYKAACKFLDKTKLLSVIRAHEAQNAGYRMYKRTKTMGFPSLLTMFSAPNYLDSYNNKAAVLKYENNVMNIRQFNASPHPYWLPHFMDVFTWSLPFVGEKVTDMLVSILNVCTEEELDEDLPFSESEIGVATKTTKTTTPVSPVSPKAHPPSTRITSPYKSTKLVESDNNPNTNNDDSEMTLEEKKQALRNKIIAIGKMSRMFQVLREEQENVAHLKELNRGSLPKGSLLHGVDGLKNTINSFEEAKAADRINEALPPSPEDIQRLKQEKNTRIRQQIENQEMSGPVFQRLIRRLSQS

[4] = fluconazole-exposed Candida albicans growth modulators – fluorescence, retest, confirmation (AID 2467); type: functional, cell-based
[5] = target: T2, Low molecular weight phosphotyrosine protein phosphatase (Homo sapiens, UniProt P24666); type: functional; details: read-out: IC50_Mean;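 also: Dose-response confirmation assay measuring inhibition of LMPTP enzyme activity by fluorescence intensity read-out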
T2 sequence (P24666 whole entry): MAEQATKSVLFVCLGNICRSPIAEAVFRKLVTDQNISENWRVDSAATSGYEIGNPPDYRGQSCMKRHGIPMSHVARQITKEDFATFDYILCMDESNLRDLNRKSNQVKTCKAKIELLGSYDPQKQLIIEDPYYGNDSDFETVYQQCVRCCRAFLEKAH

Streptococcus = assay: GAS UMAA2166 growth inhibition – luminescence, BacTiterGlo, counter-screen for streptokinase expression inhibitor project, dose response (AID 1915); type: functional, organism-based;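 also: potency for reduction of bacterial viability or growth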
[6] = test system: Streptococcus sp. 'group A'; assay: Streptococcus pyogenes SK(-)GAS viability under kanamycin – luminescence, BacTiterGlo, confirmation, counter-screen for streptokinase expression inhibitor project, dose response (AID 1900); type: functional, organism-based
Streptokinase A = target: T3, Streptokinase A (Streptococcus pyogenes serotype M1, UniProt P10520); assay: viability-normalized secreted streptokinase activity reduction – plasminogen activation absorbance, OD405, dose response (AID 1914); type: functional, Streptococcus pyogenes M1 GAS;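 also: secreted streptokinase activity via plasminogen activation per viability signal from cell pellet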
T3 sequence (P10520 whole entry): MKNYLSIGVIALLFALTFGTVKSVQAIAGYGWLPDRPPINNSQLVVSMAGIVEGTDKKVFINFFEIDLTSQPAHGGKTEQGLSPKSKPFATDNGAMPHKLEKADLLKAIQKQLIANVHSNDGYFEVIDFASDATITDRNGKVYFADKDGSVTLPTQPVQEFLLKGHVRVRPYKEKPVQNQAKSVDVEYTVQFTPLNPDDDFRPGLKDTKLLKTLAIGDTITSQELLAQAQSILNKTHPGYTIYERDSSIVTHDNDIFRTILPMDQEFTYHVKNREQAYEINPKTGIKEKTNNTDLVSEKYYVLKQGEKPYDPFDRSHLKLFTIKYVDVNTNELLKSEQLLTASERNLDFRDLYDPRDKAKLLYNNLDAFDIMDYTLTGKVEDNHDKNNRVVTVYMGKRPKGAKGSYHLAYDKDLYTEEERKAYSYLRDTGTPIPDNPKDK

[7] = target: T4, Small ubiquitin-related modifier 1 (Homo sapiens, UniProt P63165); assay: SUMO1 protein-protein binding blockers, potency – biochemical, FRET, dose response (AID 624383); type: functional; details: read-out: IC50_Mean
Prothrombin = Prothrombin (Bos taurus, UniProt P00735); assay: thrombin protease inhibitors – biochemical, fluorescence polarization, uHTS hits, dose response (AID 602369); type: functional
[8] = target: 26S proteasome non-ATPase regulatory subunit 14 (Homo sapiens, UniProt O00487); assay: inhibition of proteasome subunit RPN11 – biochemical, fluorescence polarization, uHTS hits, confirmation (AID 602368); type: functional
[9] = target: T4, Small ubiquitin-related modifier 1; assay: SUMO1 protein interaction blockers, potency – biochemical, fluorescence polarization, uHTS hits, dose response (AID 624382); type: functional; details: read-out: IC50_Mean
H9c2 = assay: cells; type: functional, cell-based; details: Rattus norvegicus, H9c2, Myocardium;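 also: confirmatory concentration-response retest of ultra-high-throughput screening hits for modulation of myocardial damage; cell death induced by hydrogen peroxide oxidative stress; compound pretreatment for 60 min then peroxide exposure for 2 h; potency is for protecting the cells against peroxide damage rather than for killing them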
[10] = target: 72 kDa type IV collagenase (Homo sapiens, UniProt P08253); assay: Dose Response validation of uHTS RPN11 inhibitor hits using a MMP-2 Fluorescence assay.; type: functional
cells [11] = type: functional, cell-based
cells [12] = type: functional, cell-based; remark: listed apart in the source
[13] = blockers of HIV-1 ZM109 envelope-driven cell-cell fusion – HeLa effector, CEM target cells, luciferase, cherry-pick, dose response (AID 652058); type: functional, cell-based;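 also: luciferase signal from HIV-1 Env mediated cell-cell fusion of effector and target cells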
[14] = off-target signal loss in HeLa-CEM21 co-culture – HeLa F-luc CTL cells, cherry-picked, counter-screen for HIV-1 Env fusion inhibitor project, dose response (AID 652040); type: functional, cell-based;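 also: potency for signal decrease marking cytotoxic or nonspecific inhibition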
[15] = blockers of HIV-1 envelope-mediated cell-cell fusion – cherry-pick, dose response (AID 652057); type: functional, cell-based
[16] = viability loss in CEM21 cells – cell-based, CellTiter-Glo luminescence, cherry-picked, cytotoxicity control for viral fusion inhibitor project, dose response (AID 652042); type: functional;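 also: potency for signal decrease meaning cytotoxicity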
[17] = HIV-1 AD8 envelope cell-cell fusion blockers – cherry-pick, dose response (AID 652062); type: functional, cell-based;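 also: luciferase signal from cell-cell fusion driven by HIV-1 clade B AD8 Env; potency is for inhibitors of fusion seen as a drop in luminescence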

Chain of ATP-dependent molecular chaperone HSP82 (C4YTQ8 whole entry): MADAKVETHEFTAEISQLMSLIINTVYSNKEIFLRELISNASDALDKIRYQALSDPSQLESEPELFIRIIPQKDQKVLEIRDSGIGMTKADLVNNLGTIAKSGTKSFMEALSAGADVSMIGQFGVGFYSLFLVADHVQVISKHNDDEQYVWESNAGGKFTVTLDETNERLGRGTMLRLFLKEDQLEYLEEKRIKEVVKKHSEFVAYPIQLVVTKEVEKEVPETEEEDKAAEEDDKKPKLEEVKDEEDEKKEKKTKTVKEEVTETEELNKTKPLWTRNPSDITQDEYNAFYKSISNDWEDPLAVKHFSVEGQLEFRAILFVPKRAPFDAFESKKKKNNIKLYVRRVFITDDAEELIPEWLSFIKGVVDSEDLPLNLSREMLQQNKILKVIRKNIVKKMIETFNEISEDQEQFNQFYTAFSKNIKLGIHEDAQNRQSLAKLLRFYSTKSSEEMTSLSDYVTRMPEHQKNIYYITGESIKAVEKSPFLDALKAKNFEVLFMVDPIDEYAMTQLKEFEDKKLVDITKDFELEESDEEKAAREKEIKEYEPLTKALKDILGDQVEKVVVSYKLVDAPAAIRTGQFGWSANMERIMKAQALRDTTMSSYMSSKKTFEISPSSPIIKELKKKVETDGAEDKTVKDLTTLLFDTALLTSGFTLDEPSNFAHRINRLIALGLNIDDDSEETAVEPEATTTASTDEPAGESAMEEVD
T4 sequence (P63165 whole entry): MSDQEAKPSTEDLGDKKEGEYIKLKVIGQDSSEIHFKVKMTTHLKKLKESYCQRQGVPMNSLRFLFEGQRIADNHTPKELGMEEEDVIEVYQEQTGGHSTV
Chain of 26S proteasome non-ATPase regulatory subunit 14 (O00487 whole entry): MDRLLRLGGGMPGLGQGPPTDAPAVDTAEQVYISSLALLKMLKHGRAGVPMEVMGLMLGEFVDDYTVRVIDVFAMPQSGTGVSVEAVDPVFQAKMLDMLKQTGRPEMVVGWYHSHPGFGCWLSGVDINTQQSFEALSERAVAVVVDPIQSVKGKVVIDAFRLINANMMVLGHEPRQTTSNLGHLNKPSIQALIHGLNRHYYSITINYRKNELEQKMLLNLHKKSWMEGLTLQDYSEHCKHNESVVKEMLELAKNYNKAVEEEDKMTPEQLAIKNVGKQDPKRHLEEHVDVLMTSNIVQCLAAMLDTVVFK
Chain of 72 kDa type IV collagenase (P08253 whole entry): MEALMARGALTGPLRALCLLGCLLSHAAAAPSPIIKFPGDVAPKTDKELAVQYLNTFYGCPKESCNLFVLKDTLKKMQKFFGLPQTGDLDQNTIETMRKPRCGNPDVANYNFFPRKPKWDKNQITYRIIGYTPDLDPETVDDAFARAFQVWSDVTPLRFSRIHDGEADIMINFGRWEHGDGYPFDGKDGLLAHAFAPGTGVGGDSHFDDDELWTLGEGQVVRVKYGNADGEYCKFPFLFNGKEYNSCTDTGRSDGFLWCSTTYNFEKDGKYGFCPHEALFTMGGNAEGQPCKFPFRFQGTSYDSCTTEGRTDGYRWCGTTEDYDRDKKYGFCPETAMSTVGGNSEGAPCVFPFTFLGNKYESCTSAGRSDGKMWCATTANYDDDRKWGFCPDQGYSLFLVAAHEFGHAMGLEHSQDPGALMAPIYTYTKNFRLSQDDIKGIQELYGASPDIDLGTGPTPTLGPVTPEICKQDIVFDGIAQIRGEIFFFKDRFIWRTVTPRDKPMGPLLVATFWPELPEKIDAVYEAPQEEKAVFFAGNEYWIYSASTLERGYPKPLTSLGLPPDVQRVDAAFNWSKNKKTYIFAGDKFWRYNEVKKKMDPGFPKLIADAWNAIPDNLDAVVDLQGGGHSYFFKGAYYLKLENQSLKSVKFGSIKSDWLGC

O=C(Nc1nnc(-c2ccco2)o1)c1cccc(Cl)c1
EC50 [1]: > 150 µM (inactive) | EC50 [2]: > 150 µM (inactive) | EC50 [3]: > 180 µM (inactive) | EC50 [4]: 1.33 µM (active)

O=C(NCCN1CCCC1)c1ccc(Cn2c(=S)[nH]c3cc4c(cc3c2=O)OCO4)cc1
IC50 [5]: 27.2 µM (inactive)

O=C(Nc1nnc(-c2ccncc2)o1)c1ccc2ccccc2c1
EC50 (Streptococcus): 19.5 µM (active) | EC50 [1]: > 150 µM (inactive) | EC50 [2]: > 150 µM (inactive) | EC50 [3]: > 180 µM (inactive) | EC50 [6]: 6.52 µM (active) | EC50 [4]: 1.47 µM (active) | EC50 (Streptokinase A): > 150 µM (not active)

COc1cc(/C=N/NC(=O)c2cccnc2)ccc1OCC(=O)Nc1ccccc1Cl
IC50 [7]: 100 µM (inactive) | IC50 (Prothrombin): > 100 µM (inactive) | IC50 [8]: 47 µM (active) | IC50 [9]: > 66.6 µM (inactive) | IC50 (H9c2): > 79 µM (inactive) | IC50 [10]: > 100 µM (inactive)

O=C(c1nc2ccccn2c1CNCC1OCCc2ccccc21)N1CCOCC1 (stereo not given)
IC50 (cells [11]): > 29.9 µM (inactive) | EC50 (cells [12]): > 29.9 µM (inactive)

COC(=O)[C@]12C[C@H](CC(=O)NCc3ccc(C)o3)C(=O)N(CCC3=CCCCC3)C1=C[C@H](C(C)(C)C)O[C@@H]2C
AC50 [13]: < 0.26 µM (active) | AC50 [14]: 1.71 µM (active) | AC50 [15]: 1.28 µM (active) | AC50 [16]: 20.3 µM (active) | AC50 [17]: 2.73 µM (active)
